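Cells were grown in 96-well plates and exposed to each compound for 48 hours at five concentrations; endpoints were interpolated linearly between bracketing concentrations, or set to the highest concentration if not reached. GI50 = concentration required for 50% inhibition of growth.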 Calls of active or inactive are those of the source. No stated cut-off is given here; in the data, active = GI50 up to about 1.1 µM and inactive = higher.
Experiments:
Experiment in all cases: growth of human tumour cells (NCI), 48 h
[1] = tested on: PC-3
[2] = tested on: Hs-578T
[3] = tested on: KM12
[4] = tested on: NCI-H522
[5] = tested on: UACC-62
[6] = tested on: UACC-257
[7] = tested on: MDA-N
[8] = tested on: SF-268
[9] = tested on: Malme-3M
[10] = tested on: U-251
[11] = tested on: UO-31
[12] = tested on: HL-60
[13] = tested on: MCF7
[14] = tested on: SR
[15] = tested on: HT-29
[16] = tested on: SK-MEL-5
[17] = tested on: SF-539
[18] = tested on: OVCAR-4
[19] = tested on: SK-MEL-2
[20] = tested on: OVCAR-5

Measured: GI50

CSc1ncnc2c1ncn2CC(=O)C1CCC2C3CCC4=CC(=O)CCC4(C)C3CCC12C (stereo not given)
inactive: [1] 2.57 µM | [2] 19.1 µM | [3] 2.84 µM | [4] 3.61 µM | [5] 3.21 µM | [6] 2.05 µM | [7] 3.07 µM | [8] 14.6 µM | [9] 7.16 µM | [10] 7.62 µM | [13] 3.08 µM | [14] 2.16 µM | [15] 3.76 µM | [16] 2.04 µM | [17] 8.41 µM | [18] 3.49 µM | [19] 2.98 µM | [20] 23.9 µM
active: [11] 0.757 µM | [12] 0.28 µM

CN(CC(=O)O)c1ncc2c(n1)-c1ccccc1CC2
inactive: [1] > 100 µM | [2] > 100 µM | [3] > 100 µM | [4] > 100 µM | [5] > 100 µM | [6] > 100 µM | [7] > 100 µM | [8] > 100 µM | [9] > 100 µM | [10] > 100 µM | [11] > 100 µM | [12] > 100 µM | [13] > 100 µM | [14] > 100 µM | [15] > 100 µM | [16] > 100 µM | [17] > 100 µM | [18] > 100 µM | [19] > 100 µM | [20] > 100 µM

CN1CCN(c2c(Cl)cc(Cl)c3[nH]c4ccccc4c(=O)c23)CC1
inactive: [1] 6.38 µM | [2] 4.8 µM | [3] 6.11 µM | [4] 2.77 µM | [5] 4.68 µM | [6] 8.45 µM | [7] 8.41 µM | [8] 2.86 µM | [9] 1.96 µM | [10] 5.82 µM | [11] 4.29 µM | [12] 2.28 µM | [13] 1.43 µM | [15] 3.22 µM | [16] 9.71 µM | [17] 3.94 µM | [18] 11.7 µM | [19] 12.2 µM | [20] 10.2 µM
active: [14] 0.301 µM

CN(C)/C=C/c1c2c(nc3ccccc13)C(=O)c1ccccc1C2=O
active: [1] 0.752 µM | [2] 1.04 µM | [5] 0.25 µM | [6] 0.498 µM | [7] 0.483 µM | [9] 0.71 µM | [10] 0.991 µM | [12] 0.366 µM | [13] 0.7 µM | [14] 0.449 µM | [16] 0.175 µM | [19] 1.12 µM
inactive: [3] 1.34 µM | [4] 1.16 µM | [8] 1.77 µM | [11] 1.82 µM | [15] 1.54 µM | [17] 1.92 µM | [18] 1.58 µM | [20] 3.15 µM

COC(=O)c1ccccc1/C=C1\Cc2c(ccc3c2CCC3)C1=O
inactive: [1] > 100 µM | [2] > 100 µM | [3] > 100 µM | [4] > 100 µM | [5] > 100 µM | [6] > 100 µM | [7] > 100 µM | [8] > 100 µM | [9] > 100 µM | [10] 68.4 µM | [11] > 100 µM | [12] > 100 µM | [13] > 100 µM | [14] > 100 µM | [15] > 100 µM | [16] > 100 µM | [17] > 100 µM | [18] > 100 µM | [19] 56 µM | [20] > 100 µM

CSCCCNC(=O)c1csc(-c2csc(CCNC(=O)CNC(=O)CNC(=O)OC(C)(C)C)n2)n1
inactive: [1] > 100 µM | [2] > 100 µM | [3] > 100 µM | [4] > 100 µM | [5] > 100 µM | [6] > 100 µM | [7] > 100 µM | [8] > 100 µM | [9] > 100 µM | [10] > 100 µM | [11] > 100 µM | [12] > 100 µM | [13] > 100 µM | [14] > 100 µM | [15] > 100 µM | [16] > 100 µM | [17] > 100 µM | [18] > 100 µM | [19] > 100 µM | [20] > 100 µM

C=CC(OC(C)=O)c1ccc(OC(C)=O)cc1 (stereo not given)
inactive: [1] 2.56 µM | [2] 2.37 µM | [3] 5.57 µM | [4] 1.91 µM | [5] 14.8 µM | [6] 6.04 µM | [7] 4.95 µM | [8] 4.92 µM | [9] 2.92 µM | [10] 2.3 µM | [11] 2.1 µM | [12] 3.79 µM | [13] 11.4 µM | [14] 2.69 µM | [15] 4.8 µM | [16] 15 µM | [17] 2.08 µM | [18] 17.2 µM | [19] 4.97 µM | [20] 9.27 µM

C[C@@]12C[C@@H](c3ccccc3O1)N1CCCSC1=N2
inactive: [1] > 100 µM | [2] > 100 µM | [3] > 100 µM | [4] > 100 µM | [5] > 100 µM | [6] > 100 µM | [7] > 100 µM | [8] > 100 µM | [9] > 100 µM | [10] > 100 µM | [11] > 100 µM | [12] > 100 µM | [13] > 100 µM | [14] > 100 µM | [15] > 100 µM | [16] > 100 µM | [17] > 100 µM | [18] > 100 µM | [19] > 100 µM | [20] > 100 µM

COc1ccc(OC(=O)N2C/C(=C\c3ccccc3)C(=O)/C(=C/c3ccccc3)C2)cc1
inactive: [1] 3.66 µM | [2] 2.11 µM | [3] 1.43 µM | [4] 2.05 µM | [5] 2.16 µM | [6] 3.74 µM | [7] 1.76 µM | [8] 3.67 µM | [9] 11.1 µM | [10] 2.48 µM | [11] 10.2 µM | [15] 1.27 µM | [16] 3.09 µM | [17] 7.82 µM | [18] 8.17 µM | [19] 11.6 µM | [20] 7.64 µM
active: [12] 0.746 µM | [13] 0.697 µM | [14] 0.222 µM

CC1(C)O[C@@H]2[C@@H]3OC(=O)C[C@@H]3[C@@H](COCc3ccccc3)[C@@H]2O1
inactive: [1] > 100 µM | [2] > 100 µM | [3] > 100 µM | [4] > 100 µM | [5] > 100 µM | [6] > 100 µM | [7] > 100 µM | [8] > 100 µM | [9] > 100 µM | [10] > 100 µM | [11] > 100 µM | [12] > 100 µM | [13] > 100 µM | [14] > 100 µM | [15] > 100 µM | [16] > 100 µM | [17] > 100 µM | [18] > 100 µM | [19] > 100 µM | [20] > 100 µM

— ChEMBL document CHEMBL1201862, “PubChem BioAssay data set” (2004)
